Measured values taken from patent publication US8946292B2, “Formulations of low dose diclofenac and beta-cyclodextrin” (Javelin Pharmaceuticals, Inc., priority 2006, dated 2015).

Tested on: moderate-to-severe post-surgical pain (post-surgical dental pain)
Test: Randomized, double-blind, single-dose, placebo- and comparator-controlled study of pain relief by administered dose (bolus IV)
Assay type: in vivo, human
Conditions: 30 mg single bolus IV dose (comparator)
Protocol: A 336-patient, seven treatment arm, randomized, double-blind, single-dose, and placebo- and comparator-controlled, parallel-group study was conducted. Patients were randomly assigned to receive a single dose of either diclofenac sodium solubilized with hydroxypropyl-beta-cyclodextrin (hereinafter “DIC”), ketorolac tromethamine, or placebo.
Bolus IV injectable 2 ml solutions were prepared by solubilizing diclofenac sodium with hydroxypropyl-beta-cyclodextrin. […]
Pain was assessed by each patient at Baseline (0 hour: Visual Analog Scale (VAS) and categorical pain intensity only), at 5, 15, 30 and 45 minutes, and at 1, 1.5, 2, 3, 4, 5, 6, 7, 8, 10, 12 and 24 hours after administration of study medication and immediately prior to the first dose of rescue medication. At each post-dose time period, levels of pain intensity (categorical and VAS) and pain relief (categorical and VAS) was assessed by each patient. […]
The presence of a dose-response was tested with a step-down testing procedure. Total pain relief (TOTPAR), peak pain relief, pain intensity difference (SPID), summed peak reduction in pain intensity difference (SPRID), and patient global evaluation was analyzed with analysis of variance (ANOVA) with treatment, center, and baseline categorical pain intensity as factors. […] A 95% confidence interval for each estimated median time to event was calculated. […]

O=C(c1ccccc1)c1ccc2n1CCC2C(=O)O (centres unmarked) [ketorolac, ketorolac tromethamine]
% Maximum Effect (TOTPAR): 100% | TOTPAR (Sum of Pain Relief VAS 0-100 mm ratings 0-6 hours) (patients, 0-6 hours): 400.3
